PubChem BioAssay (NCI)
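Step 1: Grow cells in 96-well plates. Step 2: Expose to compound for 48 hours at 5 concentrations. Step 3: Interpolate endpoints linearly; if unreached, use highest concentration. GI50: concentration for 50% inhibition of growth. TGI: concentration producing complete growth inhibition.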

Columns and labels:
Experiment in all cases: NCI tumour cell line growth inhibition, 48 h
[1] = test system: 786-0 renal
[2] = test system: A498 renal
[3] = test system: A549 NSCLC
[4] = test system: ACHN renal
[5] = test system: BT-549 breast
[6] = test system: CAKI-1 renal
[7] = test system: CCRF-CEM leukemia
[8] = test system: COLO 205 colon
[9] = test system: DU-145 prostate
[10] = test system: EKVX NSCLC
[11] = test system: HCC-2998 colon
[12] = test system: HCT-116 colon
[13] = test system: HCT-15 colon
[14] = test system: HL-60(TB) leukemia
[15] = test system: HOP-62 NSCLC
[16] = test system: HOP-92 NSCLC
[17] = test system: HS 578T breast
[18] = test system: HT29 colon
[19] = test system: IGROV1 ovarian
[20] = test system: K-562 leukemia
[21] = test system: KM12 colon
[22] = test system: LOX IMVI melanoma
[23] = test system: M14 melanoma
[24] = test system: MALME-3M melanoma
[25] = test system: MCF7 breast
[26] = test system: MDA-MB-231 breast
[27] = test system: MDA-MB-435
[28] = test system: MOLT-4 leukemia
[29] = test system: NCI-H226 lung
[30] = test system: NCI-H23 lung
[31] = test system: NCI-H460 lung
[32] = test system: NCI-H522 lung
[33] = test system: NCI/ADR-RES ovarian
[34] = test system: OVCAR-3 ovarian
[35] = test system: OVCAR-4 ovarian
[36] = test system: OVCAR-5 ovarian
[37] = test system: OVCAR-8 ovarian
[38] = test system: PC-3 prostate
[39] = test system: RPMI-8226 leukemia
[40] = test system: RXF 393 renal
[41] = test system: SF-268 CNS
[42] = test system: SF-295 CNS
[43] = test system: SF-539 CNS
[44] = test system: SK-MEL-2 melanoma
[45] = test system: SK-MEL-28 melanoma
[46] = test system: SK-MEL-5 melanoma
[47] = test system: SK-OV-3 ovarian
[48] = test system: SN12C renal
[49] = test system: SNB-19 CNS
[50] = test system: SNB-75 CNS
[51] = test system: SR leukemia
[52] = test system: SW-620 colon
[53] = test system: T-47D breast
[54] = test system: TK-10 renal
[55] = test system: U251 CNS
[56] = test system: UACC-257 melanoma
[57] = test system: UACC-62 melanoma
[58] = test system: UO-31 renal

Cc1ccc2c3c(c(=O)[nH]c2c1)C1(C(C#N)=C(N)O3)c2cc(Br)ccc2-c2ccc(Br)cc21
GI50 [1]: 2.46 µM
TGI [1]: 6.01 µM
GI50 [2]: 1.44 µM
TGI [2]: 3.61 µM
GI50 [3]: 2.01 µM
TGI [3]: 4.52 µM
GI50 [4]: 1.87 µM
TGI [4]: 4.15 µM
GI50 [5]: 3.93 µM
TGI [5]: 19.8 µM
GI50 [6]: 1.56 µM
TGI [6]: 3.23 µM
GI50 [7]: 3.12 µM
TGI [7]: 15 µM
GI50 [8]: 1.87 µM
TGI [8]: 3.82 µM
GI50 [9]: 2.98 µM
TGI [9]: 12.1 µM
GI50 [10]: 1.74 µM
TGI [10]: 3.82 µM
GI50 [11]: 2.15 µM
TGI [11]: 4.74 µM
GI50 [12]: 1.94 µM
TGI [12]: 4.35 µM
GI50 [13]: 2.23 µM
TGI [13]: 5.54 µM
GI50 [14]: 18.8 µM
TGI [14]: 66.7 µM
GI50 [15]: 1.85 µM
TGI [15]: 4.19 µM
GI50 [16]: 1.38 µM
TGI [16]: 3.15 µM
GI50 [17]: 2.22 µM
TGI [17]: 5.95 µM
GI50 [18]: 2.25 µM
TGI [18]: 6.06 µM
GI50 [19]: 1.6 µM
TGI [19]: 3.75 µM
GI50 [20]: 2.96 µM
TGI [20]: 12.6 µM
GI50 [21]: 1.67 µM
TGI [21]: 4.76 µM
GI50 [22]: 1.68 µM
TGI [22]: 3.25 µM
GI50 [23]: 4.23 µM
TGI [23]: 17 µM
GI50 [24]: 1.51 µM
TGI [24]: 3.15 µM
GI50 [25]: 2.1 µM
TGI [25]: 5.76 µM
GI50 [26]: 1.7 µM
TGI [26]: 3.6 µM
GI50 [27]: 2.05 µM
TGI [27]: 4.7 µM
GI50 [28]: 2.92 µM
TGI [28]: 10.1 µM
GI50 [29]: 1.9 µM
TGI [29]: 4.6 µM
GI50 [30]: 2.11 µM
TGI [30]: 4.62 µM
GI50 [31]: 2.09 µM
TGI [31]: 4.67 µM
GI50 [32]: 1.61 µM
TGI [32]: 4.32 µM
GI50 [33]: 6.82 µM
TGI [33]: > 100 µM
GI50 [34]: 2.11 µM
TGI [34]: 4.76 µM
GI50 [35]: 1.72 µM
TGI [35]: 3.3 µM
GI50 [36]: 2.02 µM
TGI [36]: 4.75 µM
GI50 [37]: 3.02 µM
TGI [37]: 8.62 µM
GI50 [38]: 1.85 µM
TGI [38]: 4 µM
GI50 [39]: 4.5 µM
TGI [39]: 23.7 µM
GI50 [40]: 1.53 µM
TGI [40]: 3.13 µM
GI50 [41]: 2.03 µM
TGI [41]: 5.08 µM
GI50 [42]: 1.82 µM
TGI [42]: 3.71 µM
GI50 [43]: 1.73 µM
TGI [43]: 3.21 µM
GI50 [44]: 2.52 µM
TGI [44]: 6.72 µM
GI50 [45]: 3.48 µM
TGI [45]: 13.4 µM
GI50 [46]: 10.2 µM
TGI [46]: 24.1 µM
GI50 [47]: 2.47 µM
TGI [47]: 6.45 µM
GI50 [48]: 1.92 µM
TGI [48]: 4.03 µM
GI50 [49]: 2.12 µM
TGI [49]: 6.01 µM
GI50 [50]: 1.51 µM
TGI [50]: 3.16 µM
GI50 [51]: 2.36 µM
TGI [51]: 14.5 µM
GI50 [52]: 1.86 µM
TGI [52]: 4.22 µM
GI50 [53]: 1.68 µM
TGI [53]: 3.78 µM
GI50 [54]: 2.31 µM
TGI [54]: 6.09 µM
GI50 [55]: 1.81 µM
TGI [55]: 3.5 µM
GI50 [56]: 2.32 µM
TGI [56]: 5.24 µM
GI50 [57]: 2.19 µM
TGI [57]: 11.3 µM
GI50 [58]: 1.33 µM
TGI [58]: 2.74 µM
